From PMC11329504, “Identification of novel small molecule-based strategies of COL7A1 upregulation and readthrough activity for the treatment of recessive dystrophic epidermolysis bullosa” (Scientific Reports, 2024)

Legend:
[1] = test system: truncated and full-length C7 in RDEB_L1, RDEB_L5 and HEK293^R578X cells; test: Western blot detection of truncated and full-length C7; format: cell-based, human
Method: For western blot, RDEB or normal human keratinocytes were lysed in protein extraction buffer (50 mM Tris–HCl [pH 7.5], 100 mM NaCl, 1% Nonidet P-40, and 4 mM EDTA) containing proteinase inhibitors cocktail (Complete Mini, EDTA free; Roche Diagnostics, Mannheim, Germany). Lysates were incubated for 30 min on ice and centrifuged at 15,000 g for 30 min at 4 °C. Supernatants were then collected and concentrated by ultrafiltration using Amicon Ultra columns (10 kDa; Millipore, Ireland). Protein concentrations were measured using the Bradford assay (Bio-Rad, Hercules, CA). For each sample, […] total protein was resolved on NuPAGE Novex 3%–8% Tris–Acetate gel electrophoresis (Invitrogen, Carlsbad, CA) and electrotransferred to nitrocellulose membranes (Invitrogen, Carlsbad, CA). For type VII collagen analysis, blots were probed with a monospecific polyclonal anti-C7 antibody (a generous gift from Dr. A. Nystrom, University of Freiburg). Invitrogen anti-MDH1 polyclonal antibody (PA550446, 1:1000) was used to detect MDH1. Standard antibodies against a reference protein were used as a loading control, as indicated. Visualization of the resulting signal was performed by incubating with horseradish peroxidase (HRP)- conjugated anti-rabbit antibody (Amersham, Burlington, MA) and West Pico Chemiluminescent Substrate (Pierce, Rockford, IL).

RDEB_L1 cells = test: RNAseq (HTPathwaySeq) transcriptomic profiling, GSEA; format: cell-based, human; conditions: 24 h; for modulation of GO terms related to NMD, readthrough, translation and unfolded protein response: 20 ng/mL TGFβ2, compound 7 and 8 at the highest concentrations tested of 100 and 300 µM
Method: The […]®) analysis was conducted at […], Belgium) using samples provided by Almirall. A total of 376 cell lysate samples representing 4 biological replicates of 94 samples were provided to […] in four 96-well plates. On each 96-well plate, two empty wells were allocated to include […] reference samples. Samples from the same biological group were distributed over the different plates to not confound inter-plate variability with biological signal. […] The compounds were evaluated in RDEB_L1 cells in the presence of 20 ng/mL TGFβ2 to mimic RDEB physiology and in normal human keratinocytes with no TGFβ2 treatment. Cells were treated during 24 h. Controls for RDEB_L1 cells not treated with TGFβ2 and RDEB_L1 and NHK cells treated with DMSO in the absence of compounds were also included. The conditions of the assay were identical to those described for the Real-time quantitative RT-PCR (see above). For the […], over 460 M reads were generated for 376 samples of interest, resulting in about 1.22 M reads per sample on average. […] is based on a 3'-end library preparation method, and gene body read coverage is concentrated towards the 3'-end of the genes. For quality control, a selection of lysate samples was checked for gDNA contamination and RNA content using qPCR before library preparation. RNA samples were processed to generate RNA-sequencing libraries using […] procedure based on the QuantSeq (Lexogen) 3'-end library preparation workflow. The quality of a selection of samples was assessed with the 2100 Bioanalyzer instrument (Agilent). Libraries were quantified using qPCR and pooled for single-end sequencing on a NextSeq 500 (Illumina) according to […] standard operating procedure. Raw reads were mapped to the human genome (hg38) and gene expression was quantified based on the Ensembl transcriptome annotation (version 85) using […]. Raw counts were normalized using […]2 prior to differential gene expression analysis. For each cell line, samples were clustered based on log-transformed normalized counts using tSNE. A perplexity parameter of 35 and a maximum number of 1000 iterations were applied. Genes with more than 10 normalized counts in at least 3 samples were used as input. Analysis was run in R (v3.2) with a fixed seed. […] For each contrast, genes ranked by fold change were used as input. PCA was applied on the fold changes of each compound vs their associated vehicle using the 500 genes with the greatest variance. Arrows connect the different incremental dosages used on each compound to observe their differentiation patterns. Pathway enrichment and PCA were performed using R v.3.2. Pathway enrichment was analyzed with cluster profile package. The procedure followed for the cell treatments of RDEB-L1 and NHEK, was the same as that used in the RT-qPCR study. Cell lysis and sample preparation were conducted according to […] instructions: Plates of treated cells were centrifuged for 5 min at 600 g at 4 °C, and the medium was carefully removed to avoid disturbing the cells. Then, cells were washed in PBS, centrifuged and the PBS was removed again. […] After checking that cells were lysed, the samples were transferred to 96-well PCR plates, and then sealed and stored at -80 °C to be sent to […].

| Compound | concentrations showing some upregulation of truncated and full-length forms of C7 in western blot ([1]; western blot) [mM] | modulation of GO terms related to NMD, readthrough, translation and unfolded protein response (RDEB_L1 cells) | C7 products induced, western blot ([1]; RDEB_L1 cells, 10 μM) | TGFβ signaling pathway signature (GSEA) (RDEB_L1 cells; 20 ng/mL TGFβ2, at 10 µM) | C7 products induced, western blot ([1]; RDEB_L1 and HEK293^R578X cells, 50 μM compound 7, 50 μM chuangxinmycin, 100 μM 3-methyl-chuangxinmycin) | TGFβ signaling pathway signature (GSEA) (RDEB_L1 cells; 20 ng/mL TGFβ2) |
| --- | --- | --- | --- | --- | --- | --- |
| CNC(C)C1CCC(N)C(OC2C(N)CC(N)C(OC3OCC(C)(O)C(NC)C3O)C2O)O1 (centres unmarked) [Gentamicin, reference compound] | > 1 | modulating genes related with the response to unfolded and topologically incorrect proteins |  |  |  |  |
| NC(=O)Cn1ccc2ccc(-c3cnc(N)c(C(=O)NC4C5CC6CC4CC(O)(C6)C5)n3)cc21 (centres unmarked) [Compound 1] |  | Neither compound 1 nor chuangxinmycin nor 3-methyl-chuangxinmycin showed any impact on these pathways | only upregulating the truncated form of C7 | Downregulation of TGFβ signaling |  |  |
| C#Cc1cc(-c2ccncc2)c(-c2cccc(F)c2)nc1N [Compound 7] |  | modulating genes specifically related to cytoplasmic translation and the ribosome |  |  | partially upregulated full-length C7 | did not show any effect |
